Data as given in patent publication US7879887B2, “α-amino acid derivatives and medicaments containing the same as an active ingredient” (Nissan Chemical Industries, Ltd., priority 2006, dated 2011).
pIC50: −log10 of the molar value.

Tests used:
[1] = system: colon carcinoma cell line SW620; test: Cell proliferation inhibitory activity, SW620; format: cell-based, human; details: cells counted 4 days later with Cell Counting Kit-8
Description: (§1) Evaluations were carried out using colon carcinoma cell line SW620 (Cat. No. CCL-227), lung carcinoma cell line NCI-H460 (Cat. No. HTB-177), prostate cancer cell line DU 145 (Cat. No. HTB-81), breast cancer cell line MDA-MB-231 (Cat. No. HTB26) and leukemia cell line KG-1a (Cat. No. CCL-246.1) purchased from ATCC, pancreatic cancer cell line MIAPaCa-2 (Cat. No. CRL-1420) purchased from Dainippon Pharmaceutical, and ovarian cancer cell line IGROV1 received from the Netherland Cancer Institute. The cells were cultured under the conditions recommended by the supplier for each cell line, or with respect to IGROV1, according to the method described in Cancer Res. 59: 4559-4563, 1999. Cells suspended in media were added to solutions containing the test substances at various concentrations followed by culturing in a 5% CO2 incubator at 37° C. The numbers of cells were counted 4 days later with the Cell Counting Kit-8. IC50 values were calculated by assigning measured values in the case of not containing a test substance to an inhibition of 0%, and assigning measured values in the case of not containing a test substance or cells to an inhibition of 100%.

[2] = system: ovarian cancer cell line IGROV1; test: Cell proliferation inhibitory activity, IGROV1; format: cell-based; details: cells counted 4 days later with Cell Counting Kit-8
Description: as §1

[3] = system: leukemia cell line KG-1a; test: Cell proliferation inhibitory activity, KG-1a; format: cell-based; details: cells counted 4 days later with Cell Counting Kit-8
Description: as §1

[4] = target: T1, recombinant human βARK1 (Homo sapiens, UniProt P25098); test: Inhibitory activity against βARK1 (33P phosphorylation of synthetic peptide); format: biochemical; details: recombinant human βARK1, 60 minutes at room temperature
T1 construct: made in house; host or cells: Sf-9 insect cells (baculovirus, pBacPAK8)
T1 sequence (P25098 1-689): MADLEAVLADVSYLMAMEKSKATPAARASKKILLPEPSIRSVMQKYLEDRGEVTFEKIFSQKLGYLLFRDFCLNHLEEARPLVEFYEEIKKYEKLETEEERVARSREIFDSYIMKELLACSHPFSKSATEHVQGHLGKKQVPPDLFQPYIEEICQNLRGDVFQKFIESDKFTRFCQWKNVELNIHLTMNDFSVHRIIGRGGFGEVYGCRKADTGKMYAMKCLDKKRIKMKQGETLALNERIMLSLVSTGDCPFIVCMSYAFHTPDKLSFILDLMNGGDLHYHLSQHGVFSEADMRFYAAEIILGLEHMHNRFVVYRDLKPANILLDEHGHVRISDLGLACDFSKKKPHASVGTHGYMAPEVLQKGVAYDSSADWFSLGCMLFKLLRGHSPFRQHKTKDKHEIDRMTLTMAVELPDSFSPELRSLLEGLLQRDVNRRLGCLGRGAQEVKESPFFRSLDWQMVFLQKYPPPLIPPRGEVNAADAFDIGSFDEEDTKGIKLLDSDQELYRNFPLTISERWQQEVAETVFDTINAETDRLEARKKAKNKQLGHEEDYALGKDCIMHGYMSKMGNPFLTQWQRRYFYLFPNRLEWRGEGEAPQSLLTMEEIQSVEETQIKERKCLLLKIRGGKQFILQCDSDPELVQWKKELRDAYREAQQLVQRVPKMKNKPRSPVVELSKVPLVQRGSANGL
Description: Human βARK1 was amplified by PCR based on the base sequence of human βARK1 mRNA registered in GenBank (Accession No. M80776) using a human leukocyte cDNA library (Gibco BRL Cat. No. 10421-022) as a template. The amplified cDNA fragment was inserted into a pBacPAK8 vector (Clontech) to construct a plasmid.
Recombinant human βARK1 was expressed using the BacPAK Baculovirus Expression System (Clontech, Cat. No. K1601-1). 1×10^6 Sf-9 cells were adhered to a 35 mm dish in 2.5 mL of TMN-FH Insect Medium containing 10 vol % FBS (Pharminogen, Cat. No. PM-21227M) and cultured overnight at 27° C. On the following day, the medium was removed and 500 ng of the above plasmid, BacPAK6 viral DNA cleaved with Bsu36I (5 μL) and 1.5 mL of the same medium mixed with 4 μL of Bacfectin were added followed by culturing for 5 hours, further adding 1.5 mL of medium and subsequently culturing for 5 days. […] The culture supernatant after 5 days was recovered and a plaque assay was carried out to isolate single plaques. These were then infected into Sf-9 cells and the resulting culture supernatant was designated as Passage 1 (1−3×10^11 pfu/mL). Passage 1 was added to 3×10^7 Sf-9 cells to a multiplicity of infection (MOI) of 0.1 (pfu/cell), suspension culturing was carried out for 5 days using a spinner flask, and the resulting culture supernatant was designated as Passage 2 (4×10^10 pfu/mL) and used as a viral liquid for large-volume expression.
Sf-9 cells at 3×10^9 cells/200 mL were infected by adding Passage 2 to an MOI of 100 followed by addition of medium to bring to a liquid volume of 2 L and further culturing for 3 days. After recovering the cells by centrifugation and washing three times with PBS, the cells were suspended in 100 mL of Lysis Buffer (20 mmol/L HEPES-HCl (pH 7.2), 5 mmol/L EDTA, 3 mmol/L phenylmethylsulfonyl fluoride (PMSF)). After lysing the cells by ultrasonic treatment at low temperature, the supernatant was recovered by centrifuging (45,000×g, 15 minutes) (sup1). NaCl was added to the resulting supernatant to a final concentration of 250 mmol/L followed by ultracentrifugation (300,000×g, 60 minutes) and using the subsequent supernatant as a crude cell extract (sup2).
Purification was carried out with reference to the literature (Benovic, J. L., Methods Enzymol. 1991; 200: 351-362; Kim, C. M. et al., Receptor 1993; 3: 39-55; Sohlemann, P. et al., FEBS Letters 1993; 324: 59-62). The crude cell extract was accurately brought to a volume of 400 mL with Buffer C (20 mmol/L HEPES-HCl (pH 7.2), 5 mmol/L EDTA, 0.02 vol % Triton X-100) followed by loading onto a 50 mL SP-Sepharose FF (Amersham Pharmacia Biotech) column equilibrated with Buffer C. […] ETA was carried out on each fraction using anti-GRK2 antibody (Santa-Cruz Cat. No. SC-562) and the positive fractions were collected (GRK2=βARK1). This was then diluted three-fold with Buffer C and loaded on a 5 mL HiTrap Heparin column (Amersham Pharmacia Biotech) column equilibrated with Buffer C. After washing the column with Wash Buffer (100 mmol/L NaCl, Buffer C), the column was eluted with an NaCl concentration gradient (100 to 600 mmol/L NaCl for 100 minutes, flow rate: 1 mL/min). The positive fractions as determined by ETA were collected and stored in a freezer at −80° C.
A synthetic peptide having an amino acid sequence of biotinated-[…] was used in accordance with a previous report (Chen, C. Y. et al., J. Biol. Chem. 1993; 268: 7825-7831). This synthetic peptide can also be synthesized with reference to known synthesis methods (for example, Chen, C. Y. et al., J. Biol. Chem. 1993; 268: 7825-7831, Biochemistry 1991; 30: 5118-5125). 2 μl of a DMSO solution in which the test compound was diluted to as to be […] the final concentration was dispensed into a 96-well plate (round bottom) (Falcon 351190) (final concentration: 4 vol % DMSO). […]

[5] = target: CDK2/Cyclin E complex (Homo sapiens, UniProt P24941); test: In vitro kinase assay, CDK2/Cyclin E complex; format: biochemical; details: recombinant protein (Upstate); read-out: CDK2/cyclinE IC50
Description: (§2) Inhibitory activity against Aurora A, CDK1/Cyclin B complex, CDK2/Cyclin E complex and CDK3/Cyclin E complex were measured by in vitro kinase assay using recombinant proteins.

[6] = target: T2, CDK3/Cyclin E complex (Homo sapiens, UniProt Q00526); test: In vitro kinase assay, CDK3/Cyclin E complex; format: biochemical; details: recombinant protein (Upstate); read-out: CDK3/cyclinE IC50
T2 construct: purchased Upstate Inc. 14-487
T2 sequence (Q00526 whole entry): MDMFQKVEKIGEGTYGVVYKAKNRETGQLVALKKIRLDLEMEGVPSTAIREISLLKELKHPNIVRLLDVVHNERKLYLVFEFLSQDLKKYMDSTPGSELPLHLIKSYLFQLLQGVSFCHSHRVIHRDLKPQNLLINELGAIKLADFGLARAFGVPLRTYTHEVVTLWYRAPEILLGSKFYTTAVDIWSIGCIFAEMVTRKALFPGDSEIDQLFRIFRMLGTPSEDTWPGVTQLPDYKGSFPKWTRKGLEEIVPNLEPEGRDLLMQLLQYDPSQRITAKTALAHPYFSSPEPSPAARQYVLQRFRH
T2 sequence (P24864 whole entry partner): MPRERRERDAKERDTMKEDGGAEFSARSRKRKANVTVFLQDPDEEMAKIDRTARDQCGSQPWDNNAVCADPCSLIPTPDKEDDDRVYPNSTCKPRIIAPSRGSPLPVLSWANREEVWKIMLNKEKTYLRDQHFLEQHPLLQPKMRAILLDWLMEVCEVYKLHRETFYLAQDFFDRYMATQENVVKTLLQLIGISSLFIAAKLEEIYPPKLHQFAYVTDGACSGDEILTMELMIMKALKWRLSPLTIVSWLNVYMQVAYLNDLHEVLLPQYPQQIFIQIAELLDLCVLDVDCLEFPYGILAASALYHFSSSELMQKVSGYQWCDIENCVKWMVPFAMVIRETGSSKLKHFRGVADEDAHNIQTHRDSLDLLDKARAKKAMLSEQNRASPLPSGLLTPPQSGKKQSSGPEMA
Description: as §2

[7] = system: prostate cancer cell line DU 145; test: Cell proliferation inhibitory activity, DU 145; format: cell-based, human; details: Homo sapiens, 96 h, cells counted 4 days later with Cell Counting Kit-8
Description: as §1

[8] = system: lung carcinoma cell line NCI-H460; test: Cell proliferation inhibitory activity, NCI-H460; format: cell-based; details: Homo sapiens, 96 h, cells counted 4 days later with Cell Counting Kit-8
Description: as §1

[9] = target: T3, Aurora A (Homo sapiens, UniProt O14965); test: In vitro kinase assay, Aurora A; format: biochemical; details: recombinant protein (Upstate)
T3 construct: purchased Upstate Inc. 14-511
T3 sequence (O14965 1-403): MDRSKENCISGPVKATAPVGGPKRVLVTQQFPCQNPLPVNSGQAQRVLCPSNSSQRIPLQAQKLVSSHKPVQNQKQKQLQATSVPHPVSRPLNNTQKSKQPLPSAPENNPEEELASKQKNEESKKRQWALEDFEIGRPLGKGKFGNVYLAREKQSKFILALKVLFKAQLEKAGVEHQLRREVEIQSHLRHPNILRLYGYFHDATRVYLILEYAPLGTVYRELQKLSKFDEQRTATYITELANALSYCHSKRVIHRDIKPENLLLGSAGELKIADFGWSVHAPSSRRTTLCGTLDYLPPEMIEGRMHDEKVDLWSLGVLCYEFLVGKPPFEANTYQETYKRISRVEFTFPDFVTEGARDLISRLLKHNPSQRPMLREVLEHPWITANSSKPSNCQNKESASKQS
Description: (§3) Inhibitory activity against Aurora A, CDK1/Cyclin B complex, CDK2/Cyclin E complex and CDK3/Cyclin E complex were measured by in vitro kinase assay using recombinant proteins. The assays were carried out by using recombinant proteins (Upstate Inc.) for Aurora A, CDK1/Cyclin B complex, CDK2/Cyclin E complex and CDK3/Cyclin E complex (respective cat. nos. 14-511, 14-450, 14-448 and 14-487), in accordance with the procedure described in the product instructions thereof. The 50% inhibitory concentrations (IC50 values) were calculated by assigning measured values in the case of not containing a test compound to an inhibition of 0%, and assigning measured values in the case of not containing a test compound and enzyme to an inhibition of 100%.

[10] = target: T4, CDK1/Cyclin B complex (Homo sapiens, UniProt P06493); test: In vitro kinase assay, CDK1/Cyclin B complex; format: biochemical; details: recombinant protein (Upstate)
T4 construct: purchased Upstate Inc. 14-450
T4 sequence (P06493 whole entry): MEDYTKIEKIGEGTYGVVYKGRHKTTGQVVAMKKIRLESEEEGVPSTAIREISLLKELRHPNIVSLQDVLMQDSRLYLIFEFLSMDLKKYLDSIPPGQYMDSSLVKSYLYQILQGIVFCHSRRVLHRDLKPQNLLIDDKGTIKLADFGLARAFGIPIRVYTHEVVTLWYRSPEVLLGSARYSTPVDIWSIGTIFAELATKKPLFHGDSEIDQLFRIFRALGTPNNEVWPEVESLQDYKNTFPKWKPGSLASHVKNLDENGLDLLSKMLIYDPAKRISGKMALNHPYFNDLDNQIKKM
T4 sequence (P14635 whole entry partner): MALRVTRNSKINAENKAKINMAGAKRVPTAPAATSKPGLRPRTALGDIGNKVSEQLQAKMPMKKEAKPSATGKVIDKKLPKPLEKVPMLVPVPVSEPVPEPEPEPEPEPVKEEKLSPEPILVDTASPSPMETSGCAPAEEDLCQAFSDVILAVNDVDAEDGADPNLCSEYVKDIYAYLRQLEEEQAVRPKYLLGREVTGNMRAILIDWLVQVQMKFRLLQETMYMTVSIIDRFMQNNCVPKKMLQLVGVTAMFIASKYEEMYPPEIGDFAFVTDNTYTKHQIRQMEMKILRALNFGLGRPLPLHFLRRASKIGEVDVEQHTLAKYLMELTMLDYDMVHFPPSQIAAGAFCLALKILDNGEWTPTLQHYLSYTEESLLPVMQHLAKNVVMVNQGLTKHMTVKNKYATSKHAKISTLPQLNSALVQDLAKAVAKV
Description: as §3

[11] = system: breast cancer cell line MDA-MB-231; test: Cell proliferation inhibitory activity, MDA-MB-231; format: cell-based; details: Homo sapiens, 96 h, cells counted 4 days later with Cell Counting Kit-8
Description: as §1

Row | Compound | pIC50 [1] | pIC50 [2] | pIC50 [3] | pIC50 [4] | pIC50 [5] | pIC50 [6] | pIC50 ([1]; Homo sapiens, SW-620, 96 h) | pIC50 [7] | pIC50 [8] | pIC50 ([3]; Homo sapiens, 96 h) | pIC50 [9] | pIC50 [10] | pIC50 [11]
1 | COc1cccc(NCC(=O)Nc2nc3ccc4[nH]ncc4c3s2)c1 [compound 1] | 5.80 | 5.34 | > 7.00 |  |  |  |  |  |  |  |  |  | 
2 | CC(=O)Nc1cc(NC(C(=O)Nc2nc3c(C(F)(F)F)cc4[nH]ncc4c3s2)c2ccccc2)ccc1Cl (stereo not shown) [compound 30] |  |  |  | 8.01 | 6.76 | 6.89 | 5.74 | 5.57 | 5.39 |  |  |  | 
3 | CCC(=O)Nc1cc(NC(C)(C)C(=O)Nc2nc3c(C(F)(F)F)cc4[nH]ncc4c3s2)ccc1Cl [compound 56] |  |  |  | 8.49 | 6.41 | 6.52 | 5.96 | 5.60 | 5.60 | 6.40 |  |  | 
4 | CC(C)(Nc1ccc(Cl)c(NS(C)(=O)=O)c1)C(=O)Nc1nc2c(C(F)(F)F)cc3[nH]ncc3c2s1 [compound 84] |  |  |  |  | 7.36 | 7.36 | 5.80 | 5.47 | 5.49 | 6.70 | 6.61 | 6.69 | 5.32
5 | CNC(=O)Nc1cc(NC(C)(C)C(=O)Nc2nc3c(C(F)(F)F)cc4[nH]ncc4c3s2)ccc1Cl [compound 90] |  |  |  |  | 6.80 | 7.15 | 5.89 | 5.72 | 5.60 |  |  | 6.44 | 5.36
6 | CC(C)(Nc1ccc(Cl)c(-n2cc[nH]c2=O)c1)C(=O)Nc1nc2c(C(F)(F)F)cc3[nH]ncc3c2s1 [compound 97] |  |  |  | 7.92 |  | 6.55 |  |  |  |  |  |  | 
7 | O=C(Nc1nc2ccc3[nH]ncc3c2s1)C1(Nc2ccc(Cl)cc2)CCC1 [compound 114] |  |  |  |  | 7.08 | 6.76 | 6.15 |  |  | > 7.00 |  |  | 5.33
8 | CC(C)(Nc1ccc(Cl)c(C(=O)NCCC(=O)O)c1)C(=O)Nc1nc2c(C(F)(F)F)cc3[nH]ncc3c2s1 [compound 139] |  |  |  | 8.10 | 6.77 | 7.15 |  |  |  |  | 6.97 | 6.62 | 
9 | CC(C)(Nc1ccc(Cl)c(C(=O)NCC(=O)O)c1)C(=O)Nc1nc2c(C(F)(F)F)cc3[nH]ncc3c2s1 [compound 145] |  |  |  | 8.11 | 6.71 | 6.87 |  |  |  |  | 7.12 | 6.59 | 
